Test results: ChEMBL document CHEMBL3860071, “Discovery and structure-activity relationship studies of quinolinone derivatives as potent IL-2 suppressive agents” (Bioorg Med Chem, 2016)
Activity calls are given as the source filed them. The rule behind the calls is not given here.

Columns and labels:
[1] = Cytotoxicity against human Jurkat T cells assessed as cell survival at 10 uM measured after 3 days by MTT assay; assay type: toxicity, cell-based; settings: read-out: Survival
Jurkat [2] = assay: Immunosuppressive activity in human PMA/ionomycin stimulated Jurkat T cells assessed as suppression of IL2 production at 1 uM pretreated with cells followed by PMA/ionomycin stimulation measured after 13 hrs by ELISA; assay type: functional
Jurkat [3] = assay: Immunosuppressive activity in human PMA/ionomycin stimulated Jurkat T cells assessed as suppression of IL2 production pretreated with cells followed by PMA/ionomycin stimulation measured after 13 hrs by ELISA; assay type: functional, cell-based
Jurkat [4] = assay: Immunosuppressive activity in human PMA/ionomycin stimulated Jurkat T cells assessed as suppression of IL2 production at 10 uM pretreated with cells followed by PMA/ionomycin stimulation measured after 13 hrs by ELISA; assay type: functional
Jurkat [5] = assay: Immunosuppressive activity in human anti-CD3/anti-CD28 stimulated Jurkat T cells assessed as suppression of IL2 production at 10 uM pretreated with cells followed by anti-CD3/CD28 stimulation measured after 13 hrs by ELISA; assay type: functional
Jurkat [6] = assay: Inhibition of NFkappaB activation in human anti-CD3/anti-CD28 stimulated Jurkat T cells at 10 uM measured by renilla luciferase reporter gene assay relative to control; assay type: cell-based
CYP2C9 [7] = target: T1, CYP2C9 (Homo sapiens, UniProt P11712); assay: Inhibition of recombinant human CYP2C9 expressed in baculosomes at 10 uM preincubated with protein prior to substrate addition measured after 40 mins in presence of NADP regeneration system by fluorimetric analysis; assay type: ADME
T1 sequence (P11712 whole entry): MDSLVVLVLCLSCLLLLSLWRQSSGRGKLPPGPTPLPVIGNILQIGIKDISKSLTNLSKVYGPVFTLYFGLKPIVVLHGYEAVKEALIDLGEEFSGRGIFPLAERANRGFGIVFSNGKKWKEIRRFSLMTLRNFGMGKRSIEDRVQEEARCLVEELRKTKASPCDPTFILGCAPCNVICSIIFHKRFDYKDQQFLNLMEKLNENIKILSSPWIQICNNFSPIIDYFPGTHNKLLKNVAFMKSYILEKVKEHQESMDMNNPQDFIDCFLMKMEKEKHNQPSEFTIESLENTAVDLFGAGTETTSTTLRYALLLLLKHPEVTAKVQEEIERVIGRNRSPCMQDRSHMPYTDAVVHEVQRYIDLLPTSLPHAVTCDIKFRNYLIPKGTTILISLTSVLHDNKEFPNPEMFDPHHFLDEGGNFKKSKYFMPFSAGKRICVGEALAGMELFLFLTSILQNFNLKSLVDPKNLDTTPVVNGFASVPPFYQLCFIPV

CYP2C9 [8] = target: T1, CYP2C9; assay: Inhibition of recombinant human CYP2C9 expressed in baculosomes at 1 uM preincubated with protein prior to substrate addition measured after 40 mins in presence of NADP regeneration system by fluorimetric analysis; assay type: ADME
[9] = target: T2, Nuclear factor of activated T-cells, cytoplasmic 1 (Homo sapiens) (UniProt O95644); assay: Reduction in NFATc1 nuclear localization in human anti-CD3/anti-CD28 stimulated Jurkat T cells at 10 ug measured after 15 mins by SDS-PAGE and immunoblot analysis; assay type: cell-based
T2 sequence (whole entry): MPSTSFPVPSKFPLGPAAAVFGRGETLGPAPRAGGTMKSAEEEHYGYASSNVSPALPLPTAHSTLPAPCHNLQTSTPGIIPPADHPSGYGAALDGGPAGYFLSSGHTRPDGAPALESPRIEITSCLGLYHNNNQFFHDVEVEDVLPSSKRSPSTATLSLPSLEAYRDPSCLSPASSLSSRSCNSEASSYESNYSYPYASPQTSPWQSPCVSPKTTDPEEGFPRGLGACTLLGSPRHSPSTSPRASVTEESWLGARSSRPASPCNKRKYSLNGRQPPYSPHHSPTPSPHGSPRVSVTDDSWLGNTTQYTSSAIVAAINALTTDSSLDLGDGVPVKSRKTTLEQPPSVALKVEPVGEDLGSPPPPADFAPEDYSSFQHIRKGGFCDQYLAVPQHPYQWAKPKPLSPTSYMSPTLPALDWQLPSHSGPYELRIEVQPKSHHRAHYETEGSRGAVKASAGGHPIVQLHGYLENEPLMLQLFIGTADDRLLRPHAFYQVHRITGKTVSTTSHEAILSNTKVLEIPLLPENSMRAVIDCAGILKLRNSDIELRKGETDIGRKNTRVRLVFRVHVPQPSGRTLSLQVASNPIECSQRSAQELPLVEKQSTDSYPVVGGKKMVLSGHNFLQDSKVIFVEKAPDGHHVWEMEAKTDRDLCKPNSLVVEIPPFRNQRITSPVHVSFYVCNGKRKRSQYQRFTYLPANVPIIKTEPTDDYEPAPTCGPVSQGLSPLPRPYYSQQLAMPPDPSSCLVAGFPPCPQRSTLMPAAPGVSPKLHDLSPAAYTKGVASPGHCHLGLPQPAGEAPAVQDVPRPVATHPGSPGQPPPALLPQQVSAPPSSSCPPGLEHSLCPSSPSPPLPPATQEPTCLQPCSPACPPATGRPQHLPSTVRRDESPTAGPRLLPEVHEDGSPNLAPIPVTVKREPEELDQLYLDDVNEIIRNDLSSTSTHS

[10] = target: T3, Inhibitor of nuclear factor kappa-B kinase subunit beta (Homo sapiens) (UniProt O14920); assay: Inhibition of recombinant full length human N-terminal His6-tagged IKKbeta expressed in baculovirus infected sf21 cells at 10 uM using IKKtide as substrate after 40 mins in presence of [gamma33P]ATP by scintillation counting method relative to control
T3 sequence (whole entry): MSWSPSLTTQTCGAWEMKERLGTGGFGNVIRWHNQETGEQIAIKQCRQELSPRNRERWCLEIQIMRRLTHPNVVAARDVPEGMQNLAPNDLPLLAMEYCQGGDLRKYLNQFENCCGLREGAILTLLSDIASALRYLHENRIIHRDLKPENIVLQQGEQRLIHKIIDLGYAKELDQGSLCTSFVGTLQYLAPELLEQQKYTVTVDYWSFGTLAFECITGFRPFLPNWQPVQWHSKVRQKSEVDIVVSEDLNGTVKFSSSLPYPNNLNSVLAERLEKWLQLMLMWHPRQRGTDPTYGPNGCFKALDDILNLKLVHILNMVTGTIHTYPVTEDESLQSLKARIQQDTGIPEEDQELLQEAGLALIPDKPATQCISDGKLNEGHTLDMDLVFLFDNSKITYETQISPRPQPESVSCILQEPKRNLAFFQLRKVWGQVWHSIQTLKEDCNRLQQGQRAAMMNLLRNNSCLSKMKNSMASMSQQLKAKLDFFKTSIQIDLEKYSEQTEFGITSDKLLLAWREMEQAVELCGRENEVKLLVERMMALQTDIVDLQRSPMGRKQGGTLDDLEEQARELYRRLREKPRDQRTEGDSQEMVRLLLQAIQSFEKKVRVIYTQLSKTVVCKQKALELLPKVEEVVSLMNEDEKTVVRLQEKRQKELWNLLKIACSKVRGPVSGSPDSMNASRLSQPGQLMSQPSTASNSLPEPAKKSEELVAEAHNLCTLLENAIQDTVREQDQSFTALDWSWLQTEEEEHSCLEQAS

[11] = Half life in human liver S9 fraction at 5 uM in presence of NADPH by LC-MS/MS analysis; assay type: ADME, subcellular
[12] = target: T4, NF-kappa-B inhibitor alpha (Homo sapiens) (UniProt P25963); assay: Inhibition of IkappaBalpha phosphorylation in human anti-CD3/anti-CD28 stimulated Jurkat T cells at 10 uM pretreated with cells followed by anti-CD3/anti-CD28 stimulation measured up to 60 mins immunoblot analysis; assay type: cell-based
T4 sequence (whole entry): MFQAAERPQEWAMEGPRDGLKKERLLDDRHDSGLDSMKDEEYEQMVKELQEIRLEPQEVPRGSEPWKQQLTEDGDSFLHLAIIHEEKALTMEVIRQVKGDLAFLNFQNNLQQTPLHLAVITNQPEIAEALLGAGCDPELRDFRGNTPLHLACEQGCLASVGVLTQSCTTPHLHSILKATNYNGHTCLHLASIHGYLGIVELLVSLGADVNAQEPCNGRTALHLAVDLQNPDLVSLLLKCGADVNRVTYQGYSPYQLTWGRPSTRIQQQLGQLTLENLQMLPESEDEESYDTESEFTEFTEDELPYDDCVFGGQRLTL

[13] = Half life in rat liver […] S9 fraction at 5 uM in presence of NADPH by LC-MS/MS analysis; assay type: ADME, subcellular
[14] = Half life in mouse liver […] S9 fraction at 5 uM in presence of NADPH by LC-MS/MS analysis; assay type: ADME, subcellular

Structure (SMILES)	viability at 72 h, 10 µM [1] [%]	inhibition at 1 µM (Jurkat [2]) [%]	IC50 (Jurkat [3]) [nM]	further results
COc1cccc(Cn2c(=O)c(C(=O)NCCc3ccccc3)cc3c([N+](=O)[O-])cccc32)c1	97	16		
COc1ccc(Cn2c(=O)c(C(=O)NCCc3ccc(C)cc3)cc3c(N)cccc32)cc1	99			
COc1ccc(Cn2c(=O)c(C(=O)NCCc3ccccc3)cc3ccc([N+](=O)[O-])cc32)cc1	95			
COc1ccc(Cn2c(=O)c(C(=O)NCc3ccccc3)cc3c(N)cccc32)cc1	98	30		
COc1ccc(Cn2c(=O)c(C(=O)NCCc3ccccc3)cc3c(N)cccc32)cc1	98	41		
CC(C)(C)c1ccc(Cn2c(=O)c(C(=O)NCCc3ccccc3)cc3c([N+](=O)[O-])cccc32)cc1	94		386	
COc1ccc(Cn2c(=O)c(C(=O)NCC(C)C)cc3c(N)cccc32)cc1	99			
COc1ccc(Cn2c(=O)c(C(=O)NCCc3ccc(O)c(O)c3)cc3c(N)cccc32)cc1	98	14		
O=C(NCCc1ccccc1)c1cc2c([N+](=O)[O-])cccc2n(Cc2ccc([N+](=O)[O-])cc2)c1=O	97		353	
N#Cc1ccc(Cn2c(=O)c(C(=O)NCCc3ccccc3)cc3c([N+](=O)[O-])cccc32)cc1	95	28		
CC(C)c1ccc(Cn2c(=O)c(C(=O)NCCc3ccccc3)cc3c(Cl)cccc32)cc1	91		256	
O=C(NCCc1ccccc1)c1cc2c([N+](=O)[O-])cccc2n(Cc2ccc(Cl)cc2)c1=O	97	39		
COc1ccc(Cn2c(=O)c(C(=O)NCCc3ccc(OC)c(O)c3)cc3c(N)cccc32)cc1	99	37		
COc1ccc(Cn2c(=O)c(C(=O)NCCc3ccccc3)cc3c([N+](=O)[O-])cccc32)cc1	96		924	
CCN(C(=O)c1c(O)c2c(Cl)cccc2n(C)c1=O)c1ccccc1 [LAQUINIMOD]				inhibition at 10 µM (Jurkat [4]): 16%
COc1ccc(Cn2c(=O)c(C(=O)NCCc3ccccc3)cc3c(Cl)cccc32)cc1	87	44		
CCc1ccc(CCNC(=O)c2cc3c(N)cccc3n(Cc3ccc(OC)cc3)c2=O)cc1	97			

Structure (SMILES)	viability at 72 h, 10 µM [1] [%]	inhibition at 1 µM (Jurkat [2]) [%]	IC50 (Jurkat [3]) [nM]	further results
O=C(NCCc1ccccc1)c1cc2c([N+](=O)[O-])cccc2n(Cc2ccc(OC(F)(F)F)cc2)c1=O	96		160	inhibition at 10 µM (Jurkat [5]): 79%
CC(C)c1ccc(Cn2c(=O)c(C(=O)NCCc3ccccc3)cc3c([N+](=O)[O-])cccc32)cc1	93		80	inhibition (Jurkat [6]): Active; inhibition at 40 min, 10 µM (CYP2C9 [7]): 65%; inhibition at 40 min, 1 µM (CYP2C9 [8]): 30%; inhibition [9]: Active; inhibition [10]: 29%; inhibition at 10 µM (Jurkat [5]): 83%; half-life at 5 µM [11]: 7 min; inhibition [12]: Active; half-life at 5 µM [13]: 7 min; half-life at 5 µM [14]: 7 min
CCc1ccc(Cn2c(=O)c(C(=O)NCCc3ccccc3)cc3c(Cl)cccc32)cc1	97		401	
COc1ccc(Cn2c(=O)c(C(=O)NCCc3ccc(Br)cc3)cc3c(N)cccc32)cc1	93	38		
COc1ccc(Cn2c(=O)c(C(=O)NCCc3ccncc3)cc3c(N)cccc32)cc1	93	16		
COc1ccc(Cn2c(=O)c(C(=O)NCCc3ccc(Cl)cc3)cc3c(N)cccc32)cc1	96	19		
COc1ccc(Cn2c(=O)c(C(=O)NCCc3ccc(O)cc3)cc3c(N)cccc32)cc1	97	20		
CCc1ccc(Cn2c(=O)c(C(=O)NCCc3ccccc3)cc3c([N+](=O)[O-])cccc32)cc1	96		155	inhibition at 10 µM (Jurkat [5]): 81%
COCCCNC(=O)c1cc2c(N)cccc2n(Cc2ccc(OC)cc2)c1=O	97			
O=C(NCCc1ccccc1)c1cc2c([N+](=O)[O-])cccc2n(Cc2ccccc2)c1=O	91			
O=C(NCCc1ccccc1)c1cc2c([N+](=O)[O-])cccc2n(Cc2ccc(F)cc2)c1=O	98		720	
Cc1ccc(Cn2c(=O)c(C(=O)NCCc3ccccc3)cc3c([N+](=O)[O-])cccc32)cc1	81			
COc1ccc(Cn2c(=O)c(C(=O)NCCc3ccc4c(c3)OCO4)cc3c(N)cccc32)cc1	96	31		
C/C=C/C[C@@H](C)[C@@H](O)[C@H]1C(=O)N[C@@H](CC)C(=O)N(C)CC(=O)N(C)[C@@H](CC(C)C)C(=O)N[C@@H](C(C)C)C(=O)N(C)[C@@H](CC(C)C)C(=O)N[C@@H](C)C(=O)N[C@H](C)C(=O)N(C)[C@@H](CC(C)C)C(=O)N(C)[C@@H](CC(C)C)C(=O)N(C)[C@@H](C(C)C)C(=O)N1C [CYCLOSPORINE]			11	
COc1ccc(Cn2c(=O)c(C(=O)NCCCc3ccccc3)cc3c(N)cccc32)cc1	97	11		
O=C(NCCc1ccccc1)c1cc2c([N+](=O)[O-])cccc2n(Cc2ccc(Br)cc2)c1=O	64		780	
COc1ccc(CCNC(=O)c2cc3c(N)cccc3n(Cc3ccc(OC)cc3)c2=O)cc1	96	25		
